Reference: article PMC5320730, “Synthetic curcumin derivative DK1 possessed G2/M arrest and induced apoptosis through accumulation of intracellular ROS in MCF-7 breast cancer cells” (Cancer Cell International, 2017)

Legend:
[1] = tested on: HL-60 cells; assay: MTT cell viability assay, HL-60; format: cell-based; details: Homo sapiens, HL-60, MTT
Method: (§1) Promyelocytic leukemia HL60, hepatoblastoma HepG2, breast cancer MCF-7 and MDA-MB-231 cells were purchased from ATCC (USA) and cultured in RPMI-1640 media (Sigma, USA), supplemented with 10% fetal bovine serum (FBS) (PAA, USA). Normal epithelial MCF-10A cells (ATCC, USA) was maintain in DMEM-F12 (Sigma, USA) supplemented with hydrocortisone (0.5 μg/mL), insulin (10 μg/mL), human epidermal growth factor (hEGF) (20 ng/mL) (Sigma, USA) and 10% FBS (PAA, USA).
(§2) MTT cell viability assay was used to evaluate the effect of DK1 on viability of HL-60, HepG2, MCF-7, MDA-MB-231 and MCF-10A cells. Briefly, each type of cells (8 × 10^4cells/well) was seeded in 96-well plate in 37 °C CO2 incubator overnight. Then, DK1 was added at concentration ranging between 200 and 3.125 µM by twofold serial dilution. Untreated control was prepared simultaneously. After that, the cells were incubated for 24, 48 and 72 h at 37 °C in 5% CO2 incubator. After the incubation period, all well was added with 20 μL of MTT solution (5 mg/mL) and further incubated for 3 h. Subsequently, 170 μL of supernatant from each well was discarded, 100 μL of dimethyl sulfoxide (DMSO) was added to solubilize the purple formazan crystal and the absorbance was measured at a wavelength of 570 nm by Enzyme-linked immunosorbent assay (ELISA) plate reader (Bio-tek instruments, USA). All cell lines were assayed for three biological replicates each with triplicates. Percentage of cell viability was calculated using the following formula: Cell viability%=OD sample/OD control×100%
(§3) IC50 value (concentration of DK1 that reduce 50% of cell viability compared to control cell) was determined from the graph of cell viability (%) vs DK1 concentration. Subsequently, selective index, which indicating selectivity of DK1 against cancerous and normal breast cell lines, was calculated by: Selective indexSI=IC50of DK1on normal MCF-10A cell line/IC50on breast cancerous cell lineHL60/HepG2/MCF-7/MDA-MB-231

[2] = tested on: HepG2 cells; assay: MTT cell viability assay, HepG2; format: cell-based; details: Homo sapiens
Method: as §1, §2, §3

[3] = tested on: MCF-7 cells; assay: MTT cell viability assay, MCF-7; format: cell-based, human; details: for IC50: Homo sapiens, MCF7, MCF-7, MTT
Method: as §1, §2, §3

[4] = tested on: MDA-MB-231 cells; assay: MTT cell viability assay, MDA-MB-231; format: cell-based, human; details: for IC50: Homo sapiens, MDA-MB-231, MTT
Method: as §1, §2, §3

[5] = tested on: MCF-10A cells; assay: MTT cell viability assay, normal MCF-10A; format: cell-based; details: Homo sapiens
Method: as §1, §2, §3

[6] = tested on: MCF-7 cells; assay: Flow cytometry AnnexinV-FITC/PI apoptosis analysis; format: cell-based, human
Method: Apoptosis of DK1 treated MCF-7 was compared with the control cell by Flow cytometry AnnexinV-FITC/PI apoptosis assay. Briefly, harvested cells were resuspended in 100 μL of 1× binding buffer and stained with 5 μL each of AnnexinV-FITC and propidiumiodide. After 15 min of incubation, the cells were added with 400 μL of 1× binding buffer and subjected to BD FACS Calibur flow cytometer analysis using BD Cell Quest Pro software (Becton–Dickinson, USA).

[7] = tested on: p53 in MCF-7 cells; assay: Western blot analysis of p53; format: cell-based, human
Method: Total protein was extracted from harvested cell with Radioimmunoprecipitation assay (RIPA) buffer supplemented with phosphatase inhibitor cocktail (Roche, Canada) and the concentration was quantified by Bradford assay (Sigma, USA). Then, 100 μg of extracted protein was subjected to sodium dodecyl sulfate polyacrylamide gel electrophoresis (SDS-PAGE) (Bio-Rad, USA), transferred to nitrocellulose membrane, block with 0.5% skimmed milk overnight, washed with Tris-buffered saline tween (TBST) buffer and incubated with primary antibodies (anti-CDC2, anti-pCDC2 (Tyr15), anti-p53, and anti-β-actin at a dilution of 1:1000 (Abcam, USA) for 1 h. After that, membranes were washed, incubated with 1:5000 diluted goat anti-rabbit IgG H&L conjugated to […] (Abcam, USA) and developed under chemiluminescence condition (Super Signal West Pico, Pierce, USA) using the ChemiDoc XRS (Bio-Rad, USA). Differential level of evaluated protein in control and DK1 treated MCF-7 was calculated based on the bands intensity analyzed using the Quantity One 1D Analysis software (Bio-rad, USA).

[8] = tested on: PLK1, p21 and WEE-1 expression in MCF-7 cells; assay: qRT-PCR of cell cycle related genes; details: MCF-7, curcumin 30 µM, 72 h

Structure (SMILES): COc1cc(/C=C/C(=O)CC(=O)/C=C/c2ccc(O)c(OC)c2)ccc1O [Curcumin, diferuloylmethane]
- IC50 ([1]; 24 h): 57 ± 3.75 µM
- IC50 ([1]; 48 h): 29.9 ± 3.11 µM
- IC50 ([1]; 72 h): 21.7 ± 1.76 µM
- IC50 ([2]; 24 h): 67.9 ± 2.88 µM
- IC50 ([2]; 48 h): 40.7 ± 2.76 µM
- IC50 ([2]; 72 h): 24.4 ± 2.25 µM
- IC50 ([3]; 24 h): 40.7 ± 3.24 µM
- IC50 ([3]; 48 h): 36.6 ± 2.31 µM
- IC50 ([3]; 72 h): 30.2 ± 2.36 µM
- Selective index of MCF-10A/MCF-7 ([3]; IC50 MCF-10A / IC50 MCF-7, 24 h): 4.67
- Selective index of MCF-10A/MCF-7 ([3]; IC50 MCF-10A / IC50 MCF-7, 72 h): 3.33
- IC50 ([4]; 24 h): 35.3 ± 4.16 µM
- IC50 ([4]; 48 h): 21.7 ± 1.87 µM
- IC50 ([4]; 72 h): 21.7 ± 3.18 µM
- Selective index of MCF-10A/MDA ([4]; IC50 MCF-10A / IC50 MDA-MB-231, 24 h): 5.38
- Selective index of MCF-10A/MDA ([4]; IC50 MCF-10A / IC50 MDA-MB-231, 48 h): 5.25
- Selective index of MCF-10A/MDA ([4]; IC50 MCF-10A / IC50 MDA-MB-231, 72 h): 4.63
- IC50 ([5]; 24 h): 190 ± 3.67 µM
- IC50 ([5]; 48 h): 114 ± 3.57 µM
- IC50 ([5]; 72 h): 100 ± 3.17 µM
- late apoptosis, folds lower than DK1 treatment ([6]; MCF-7, 72 h, curcumin 30 µM vs DK1 25 µM): 2.6 folds
- late apoptosis ([6]; MCF-7, curcumin 30 µM, 72 h, AnnexinV/PI): 15%
- deregulation of apoptosis related genes or proteins, particularly p53, compared to DK1 ([7]; MCF-7, curcumin 30 µM, 72 h): lower degree of deregulation
- significant upregulation of p53 ([7]; curcumin treated MCF-7): absent
- deregulation of cell cycle regulation related genes compared to DK1 [8]: lower degree of deregulation
